Tested on: Pyricularia grisea
Test: Antifungal activity against Magnaporthe grisea infected rice plant assessed as logarithm of fungal control value at 100 ppm after 5 days
Assay type: functional

Compound | Activity
CC(C)Oc1ccc(/N=c2/scc(CC(=O)Nc3ccc(C(F)F)cc3)n2C)cc1 | 1.7
Cn1c(CC(=O)Nc2ccc(Cl)cc2)cs/c1=N\c1ccc(F)c(Cl)c1 | 1.98
Cn1c(CC(=O)Nc2ccc(OC(F)(F)F)cc2)cs/c1=N\c1cccc(C(F)(F)F)c1 | 1.7
Cn1c(CC(=O)Nc2ccc(Br)cc2)cs/c1=N\c1cccc(F)c1 | 1.9
COc1ccc(/N=c2\scc(CC(=O)Nc3ccc(C(F)F)cc3)n2C)cc1 | 1.4
COc1ccc(NC(=O)Cc2cs/c(=N\c3ccc(Cl)c(C(F)(F)F)c3)n2C)cc1 | 2
COc1ccc(NC(=O)Cc2cs/c(=N\c3cccc(C(F)(F)F)c3)n2C)cc1 | 2
CCc1ccc(NC(=O)Cc2cs/c(=N\c3ccc(F)c([N+](=O)[O-])c3)n2C)cc1 | 1.98
COc1ccc(/N=c2/scc(CC(=O)Nc3ccc(OC(F)(F)F)cc3)n2C)cc1 | 1.4
CCCCc1ccc(/N=c2\scc(CC(=O)Nc3ccc(Cl)cc3)n2C)cc1 | 1.97
CCc1ccc(NC(=O)Cc2cs/c(=N\c3cccc([N+](=O)[O-])c3)n2C)cc1 | 1.99
Cn1c(CC(=O)Nc2ccc(Oc3ccccc3)cc2)cs/c1=N/c1ccc(Br)cc1 | 1.23
CCCCOc1ccc(NC(=O)Cc2cs/c(=N/c3ccc(C(F)(F)F)cc3)n2C)cc1 | 1
Cn1c(CC(=O)Nc2ccc(Oc3ccccc3)cc2)cs/c1=N/c1ccc(Oc2ccccc2)cc1 | 1.4
CCCCc1ccc(/N=c2/scc(CC(=O)Nc3ccc([N+](=O)[O-])cc3)n2C)cc1 | 1.11
Cn1c(CC(=O)Nc2ccc(Br)cc2)cs/c1=N\c1cccc(Br)c1 | 1.99
CCOc1ccc(NC(=O)Cc2cs/c(=N\c3cccc(Br)c3)n2C)cc1 | 1.91
Cn1c(CC(=O)Nc2ccc([N+](=O)[O-])cc2)cs/c1=N/c1ccc(C#N)cc1 | 0.7
COc1ccc(NC(=O)Cc2cs/c(=N\c3ccc(C)c(F)c3)n2C)cc1 | 1.98
COc1ccc(NC(=O)Cc2cs/c(=N\c3ccc(OC)c(Cl)c3)n2C)cc1 | 1.98

Compound | Activity
Cn1c(CC(=O)Nc2ccc([N+](=O)[O-])cc2)cs/c1=N/c1ccc(F)cc1 | 0.9
COc1ccc(NC(=O)Cc2cs/c(=N\c3ccc(Cl)c(Cl)c3)n2C)cc1 | 1.98
Cn1c(CC(=O)Nc2ccc(C(F)F)cc2)cs/c1=N\c1ccc(Cl)cc1 | 1.52
COc1ccc(NC(=O)Cc2cs/c(=N\c3cccc(C)c3)n2C)cc1 | 1.98
Cn1c(CC(=O)Nc2ccc(OC(F)(F)F)cc2)cs/c1=N\c1cccc(F)c1 | 1.62
COc1ccc(NC(=O)Cc2cs/c(=N\c3ccc(F)c(Cl)c3)n2C)cc1 | 1.98
Cn1c(CC(=O)Nc2ccc(Cl)cc2)cs/c1=N\c1cccc(Br)c1 | 1.98
Cn1c(CC(=O)Nc2ccc(Oc3ccccc3)cc2)cs/c1=N\c1cccc(F)c1 | 1.23
COc1ccc(NC(=O)Cc2cs/c(=N\c3cccc(Br)c3)n2C)cc1 | 1.99
COc1cccc(/N=c2\scc(CC(=O)Nc3ccc(Cl)cc3)n2C)c1 | 1.76
Cn1c(CC(=O)Nc2ccc(Cl)cc2)cs/c1=N\c1cccc(F)c1 | 1.96
CCc1ccc(NC(=O)Cc2cs/c(=N\c3ccc(F)c(Cl)c3)n2C)cc1 | 1.98
Cn1c(CC(=O)Nc2ccc(Cl)cc2)cs/c1=N\c1ccc(-c2ccccc2)cc1 | 1.98
Cn1c(CC(=O)Nc2ccc(OC(F)(F)F)cc2)cs/c1=N/c1ccc(Cl)cc1 | 1.52
CCCCc1ccc(NC(=O)Cc2cs/c(=N\c3ccc(F)c(Cl)c3)n2C)cc1 | 1.3
Cn1c(CC(=O)Nc2ccc(Oc3ccccc3)cc2)cs/c1=N\c1cccc(Br)c1 | 0.9
CCc1ccc(NC(=O)Cc2cs/c(=N\c3ccc(C#N)c(Cl)c3)n2C)cc1 | 1.98
CCc1ccc(NC(=O)Cc2cs/c(=N\c3ccc(Br)c(C)c3)n2C)cc1 | 1.98
CCCCOc1ccc(NC(=O)Cc2cs/c(=N\c3cccc(F)c3)n2C)cc1 | 1

Reference: ChEMBL document CHEMBL1142346, “Quantitative structural-activity relationship (QSAR) study for fungicidal activities of thiazoline derivatives against rice blast” (2008)
